The assay can be described thus: DPPH (2,2-diphenyl-1-picrylhydrazyl) in vitro antioxidant / radical scavenging test. In kind it is biochemical. To be noted: 517 nm; for Inhibition: radical scavenging inhibition of DPPH, vitamin C as reference. The procedure: A new polyfunctionalized pyridine 6′-(4-bromophenyl)-2′-ethoxy-3,4′-bipyridine-3′-carbonitrile (4) was investigated for its antioxidant activity by 2,2-diphenyl-1-picrylhydrazyl (DPPH) in vitro tests that employ vitamin C as the positive control. The product 4 magnitude estimated the antioxidant potential to vanish the DPPH radical distinctive colors at 517 nm. […] The radical scavenging inhibition was calculated using the following equation: […]
Background: Loss of DPPH colour is used to gauge radical scavenging.

What is called Inhibition is the share of the control response that was lost under treatment. A high value points to a strong effect.

In turn, `CCOc1nc(-c2ccc(Br)cc2)cc(-c2cccnc2)c1C#N` [Product 4, 6′-(4-bromophenyl)-2′-ethoxy-3,4′-bipyridine-3′-carbonitrile] had an Inhibition of 48%. Moreover, for the setting “DPPH in vitro test”, the “antioxidant potential compared to vitamin C” value is reported as “high potential as an antioxidant”.
`O=C1O[C@H]([C@@H](O)CO)C(O)=C1O` [vit c, vitamin C, reference compound]: the Inhibition was found to be 74%.

The record behind these values is US11919862B1, “6′-(4-bromophenyl)-2′-ethoxy-3,4′-bipyridine-3′-carbonitrile as an antioxidant” (KING FAISAL UNIVERSITY, priority 2023, dated 2024).
